# Source: patent US20100317849A1, “Process For Producing Pure And Stable Form Of 2-Methyl-4-(4-Methyl-1-Piperazinyl) -10H-Thieno[2,3-B] [1,5] Benzodiazepine” (priority 2006, published 2010)
# Entries after “also recorded” stand apart in the source; their conditions may differ.
# Tests used:
# [1] = Stability of Olanzapine Form I at stressed conditions (40° C./75% RH), HPLC purity, total impurity and colour (UV absorbance at 430 nm); format: physicochemical
# [2] = as above; format: physicochemical; conditions: for Absorbance at 430 nm Log I/Io: colour; for Stability under stressed conditions: stressed conditions (40° C.)
# Description: The colour of Olanzapine is determined by following method:
# Olanzapine 50 mg was dissolved in 50 ml 0.1 N HCl in methanol, which was diluted to prepare 100 μgm/ml, 200 μgm/ml, 500 μgm/ml of Olanzapine solution. […] Calibration curve was plotted between absorbance and concentration.
# % of Colour=Amount of colour from calibration curve×100/Weight of sample taken.
# [3] = cited from earlier work
structure (smiles),measurement,setting,value
"Cc1cc2c(s1)Nc1ccccc1N=C2N1CCN(C)CC1 [Olanzapine Form I, 2-methyl-4-(4-methyl-1-piperazinyl)-10H-thieno[2,3-b][1,5]benzodiazepine]",Impurity Profile Chromatographic purity %,[1]; 30 DAYS/40° C./75% RH,99.94%
same,Impurity Profile Total Imp. % age,[1]; 30 DAYS/40° C./75% RH,0.06 % age
same,Absorbance at 430 nm Log I/Io,"[1]; 30 DAYS/40° C./75% RH, colour",0.402
same,Impurity Profile Chromatographic purity %,[1]; 60 DAYS/40° C./75% RH,99.96%
same,Impurity Profile Total Imp. % age,[1]; 60 DAYS/40° C./75% RH,0.04 % age
same,Impurity Profile Chromatographic purity %,[1]; 120 DAYS/40° C./75% RH,99.95%
same,Impurity Profile Total Imp. % age,[1]; 120 DAYS/40° C./75% RH,0.05 % age
same,Impurity Profile Chromatographic purity %,[1]; 180 DAYS/40° C./75% RH,99.93%
same,Impurity Profile Total Imp. % age,[1]; 180 DAYS/40° C./75% RH,0.07 % age
same,Impurity Profile Chromatographic purity %,[1]; Initial,99.97%
same,Impurity Profile Total Imp. % age,[1]; Initial,0.03 % age
same,Absorbance at 430 nm Log I/Io,[2]; 60 DAYS/40° C./75% RH,0.407
same,Absorbance at 430 nm Log I/Io,[2]; 120 DAYS/40° C./75% RH,0.4034
same,Absorbance at 430 nm Log I/Io,[2]; 180 DAYS/40° C./75% RH,0.4026
same,Absorbance at 430 nm Log I/Io,[2]; Initial,0.4
same,Colour stability upon storage,"[2]; high temperature (40° C.), high moisture or stress conditions",colour stable; also recorded: stable colour
same,Stability under stressed conditions,[2]; listed as Form I,highly stable
same,Stability under stressed conditions,[2]; listed as olanzapine,high stability
same,Stability / colour on standing,"[3]; Form I crystallized from acetonitrile per U.S. Pat. No. 5,229,382, on standing",metastable and changes its color on standing
same,Stability at room temperature,"[3]; Form I prepared from alcoholic solvent, U.S. Pat. No. 6,906,062, room temperature",stable form at room temperature
